Consider 45 compounds from US11612606B2, “8-aminoisoquinoline compounds and uses thereof” (priority 2018, dated 2023).

Where a name gives a salt, the structure may show the parent alone. Read-outs that look alike come from different tables or passages of the source. Bounds are passed on as bounds.

For this test, the target named is HPK full length, T165E S171E (Homo sapiens (Human), UniProt Q92918, S171E/T165E). As to the kind of experiment: HPK1-FL HTRF enzymatic assay ("HTRF"). The class given is biochemical. The note with it: ATP 1 mM. As to the method: Assay Principle: HPK-FL enzyme phosphorylates Biotin-SLP-76 substrate in the presence of ATP at […] and varying concentrations of test compound. Product is detected by FRET using Eu-anti-pSLP76 Ab and SA-XL665. Also see www.cisbio.com/HTRF for additional HTRF technology information.
Instrumentation: Echo555 compound dispenser; Agilent Bravo; Perkin Elmer Envision.
To a 384 well Proxiplate with 80 nL compound or DMSO spotted on was added 4 μl/well kinase mix. The mixture was preincubated for 30 minutes and then 4 μl/well substrate mix was added. The solution was incubated for 60 min and then 4 μl/well detection mix was added. The solution was incubated for another 60 min.
Exemplary compounds were tested in the HTRF binding assays.
On the technique in general: Time-resolved FRET reads energy transfer from a long-lived donor to a nearby acceptor.

HPK full length, T165E S171E, sequence (Q92918 whole entry T165E/S171E, looked up): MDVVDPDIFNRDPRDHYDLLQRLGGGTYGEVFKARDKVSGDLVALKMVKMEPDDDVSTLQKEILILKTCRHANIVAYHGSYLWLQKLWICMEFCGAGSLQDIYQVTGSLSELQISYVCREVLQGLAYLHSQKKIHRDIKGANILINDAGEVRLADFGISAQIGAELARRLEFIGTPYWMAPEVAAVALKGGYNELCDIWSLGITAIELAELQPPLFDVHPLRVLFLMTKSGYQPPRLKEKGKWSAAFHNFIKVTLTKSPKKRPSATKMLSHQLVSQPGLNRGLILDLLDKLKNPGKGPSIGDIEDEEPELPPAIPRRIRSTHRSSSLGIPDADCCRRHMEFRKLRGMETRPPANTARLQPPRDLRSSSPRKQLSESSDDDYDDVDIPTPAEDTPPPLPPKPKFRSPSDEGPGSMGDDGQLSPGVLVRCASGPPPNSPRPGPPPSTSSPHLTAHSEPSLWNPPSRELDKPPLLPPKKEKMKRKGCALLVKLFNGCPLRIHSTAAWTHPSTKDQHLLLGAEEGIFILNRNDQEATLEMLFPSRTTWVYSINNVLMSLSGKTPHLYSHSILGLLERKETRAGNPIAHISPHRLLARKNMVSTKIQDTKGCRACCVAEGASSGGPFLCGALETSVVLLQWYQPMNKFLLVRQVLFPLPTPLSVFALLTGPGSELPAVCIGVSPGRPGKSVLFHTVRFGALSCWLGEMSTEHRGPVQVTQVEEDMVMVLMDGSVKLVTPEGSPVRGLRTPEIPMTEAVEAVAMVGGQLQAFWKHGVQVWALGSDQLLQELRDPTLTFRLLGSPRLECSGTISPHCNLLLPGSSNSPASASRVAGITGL

For the compound `Cc1c(-c2cc(N)c3cnc(NC(=O)O[C@@H]4COC[C@H]4C)cc3c2)cnc2c1NCCO2` (single isomer, unassigned) [Compound 556b, hydrochloride], where the note is “read-out: HPK1 Ki”, the Ki (commonly the dissociation constant of the complex between target and ligand, obtained from inhibition or displacement) was less than 0.013 nM. Regarding `Cc1c(-c2cc3cc(NC(=O)O[C@H]4COC[C@@H]4C)ncc3c(N)c2F)cnc2c1NC(=O)CO2` (single isomer, unassigned) [Compound 558a, hydrochloride], under “read-out: HPK1 Ki”, the Ki was 0.9 nM. With `Cc1c(-c2cc3cc(NC(=O)O[C@@H]4COC[C@H]4C)ncc3c(N)c2F)cnc2c1NC(=O)CO2` (single isomer, unassigned) [Compound 558b, hydrochloride], the Ki (read-out: HPK1 Ki) is 3.75 nM. In the case of `Cc1c(-c2cc3cc(NC(=O)O[C@@H]4CC[C@@H]4C)ncc3c(N)c2F)cnc2c1NCCO2` (single isomer, unassigned) [Compound 559a], the Ki (read-out: HPK1 Ki) stood at 0.025 nM.

As to `Cc1c(-c2cc3cc(NC(=O)O[C@@H]4CC[C@@H]4C)ncc3c(N)c2F)cnc2c1NCCO2` (single isomer, unassigned) [Compound 559c], the Ki (read-out: HPK1 Ki) was less than 0.013 nM.

As to `Cc1c(-c2cc3cc(NC(=O)OC4CC(O)C4)ncc3c(N)c2F)cnc2c1NC[C@@H](C)C2` (single isomer, unassigned) [Compound 560a], the Ki (read-out: HPK1 Ki) is 0.019 nM.

`Cc1c(-c2cc3cc(NC(=O)O[C@@H]4CCN(CC(F)F)C[C@@H]4F)ncc3c(N)c2F)cnc2c1NCCO2` (single isomer, unassigned) [Compound 566a]: for the setting “read-out: HPK1 Ki”, the Ki is 0.293 nM. On the same count and under the same terms, under `Cc1c(-c2cc3cc(NC(=O)O[C@H]4CCN(CC(F)F)C[C@H]4F)ncc3c(N)c2F)cnc2c1NCCO2` (single isomer, unassigned) [Compound 566b] stands 0.149 nM; under `Cc1c(-c2cc3cc(NC(=O)O[C@H]4COC[C@@H]4C)ncc3c(N)c2F)cnc2c1NC[C@H](F)O2` (single isomer, unassigned) [Compound 567a], 0.33 nM; under `Cc1c(-c2cc3cc(NC(=O)O[C@H]4COC[C@@H]4C)ncc3c(N)c2F)cnc2c1NC[C@@H](F)O2` (single isomer, unassigned) [Compound 567b], 0.119 nM. Still for that read-out and setting: the value for `Cc1c(-c2cc3cc(NC(=O)O[C@H]4CO[C@@H]5OCC[C@@H]54)ncc3c(N)c2F)cnc2c1NCCO2` (single isomer, unassigned) [Compound 568a] was 0.185 nM; that for `Cc1c(-c2cc3cc(NC(=O)O[C@@H]4CO[C@H]5OCC[C@H]54)ncc3c(N)c2F)cnc2c1NCCO2` (single isomer, unassigned) [Compound 568b] was 0.018 nM; that for `Cc1c(-c2cc3cc(NC(=O)O[C@H]4C[C@@H]([C@H](C)O)C4)ncc3c(N)c2F)cnc2c1NCCO2` (single isomer, unassigned) [Compound 573a] was 0.015 nM.

Take `Cc1c(-c2cc3cc(NC(=O)O[C@H]4C[C@H]([C@H](C)O)C4)ncc3c(N)c2F)cnc2c1NCCO2` (single isomer, unassigned) [Compound 573b]: the Ki (read-out: HPK1 Ki) came to 0.019 nM. With `Cc1c(-c2cc3cc(NC(=O)O[C@H]4C[C@H]([C@@H](C)O)C4)ncc3c(N)c2F)cnc2c1NCCO2` (single isomer, unassigned) [Compound 573c], the inhibitory constant (Ki) (read-out: HPK1 Ki) was determined as 0.017 nM. On the same count and under the same terms, under `Cc1c(-c2cc3cc(NC(=O)O[C@H]4C[C@@H]([C@@H](C)O)C4)ncc3c(N)c2F)cnc2c1NCCO2` (single isomer, unassigned) [Compound 573d] stands less than 0.013 nM; under `Cc1c(-c2cc3cc(NC(=O)O[C@@H]4Cc5ncnn5C4)ncc3c(N)c2F)cnc2c1NCCO2` (single isomer, unassigned) [Compound 578a], 0.028 nM. As for `Cc1c(-c2cc3cc(NC(=O)O[C@H]4Cc5ncnn5C4)ncc3c(N)c2F)cnc2c1NCCO2` (single isomer, unassigned) [Compound 578b], the inhibition constant Ki (read-out: HPK1 Ki) worked out at 0.15 nM. Same read-out and setting: the value for `Cc1c(-c2cc3cc(NC(=O)O[C@H]4CC[C@@H](O)C4)ncc3c(N)c2F)cnc2c1NCCO2` (single isomer, unassigned) [Compound 582a] was 0.02 nM. The same measure, in the same setting: under `Cc1c(-c2cc3cc(NC(=O)O[C@@H]4CC[C@H](O)C4)ncc3c(N)c2F)cnc2c1NCCO2` (single isomer, unassigned) [Compound 582b] stands 0.02 nM.

Consider `CO[C@H]1COCC[C@@H]1OC(=O)Nc1cc2cc(-c3cnc4c(c3C)NCCO4)c(F)c(N)c2cn1` (single isomer, unassigned) [Compound 583a], for which, under “read-out: HPK1 Ki”, the Ki is 0.12 nM.

As for `CO[C@H]1COCC[C@H]1OC(=O)Nc1cc2cc(-c3cnc4c(c3C)NCCO4)c(F)c(N)c2cn1` (single isomer, unassigned) [Compound 583b], for the setting “read-out: HPK1 Ki”, the Ki was 0.021 nM. Still for that read-out and setting: the value for `CO[C@@H]1COCC[C@@H]1OC(=O)Nc1cc2cc(-c3cnc4c(c3C)NCCO4)c(F)c(N)c2cn1` (single isomer, unassigned) [Compound 583c] was 0.099 nM; that for `CO[C@@H]1COCC[C@H]1OC(=O)Nc1cc2cc(-c3cnc4c(c3C)NCCO4)c(F)c(N)c2cn1` (single isomer, unassigned) [Compound 583d] was 0.72 nM; that for `Cc1c(-c2cc3cc(NC(=O)O[C@H]4C[C@@H](O)C4)ncc3c(N)c2F)cnc2c1NC[C@@H]1C[C@H]21` (single isomer, unassigned) [Compound 584a] was 0.14 nM. As to `Cc1c(-c2cc3cc(NC(=O)O[C@H]4C[C@@H](O)C4)ncc3c(N)c2F)cnc2c1NC[C@H]1C[C@@H]21` (single isomer, unassigned) [Compound 584b], the Ki (read-out: HPK1 Ki) amounted to 2.1 nM. As to `Cc1c(-c2cc3cc(NC(=O)N[C@@H]4CCN(C)C[C@H]4F)ncc3c(N)c2F)cnc2c1NCCO2` (single isomer, unassigned) [Compound 703a], the Ki (read-out: HPK1 Ki) was determined as 0.022 nM. The same measure, in the same setting: under `Cc1c(-c2cc3cc(NC(=O)N[C@H]4CCN(C)C[C@@H]4F)ncc3c(N)c2F)cnc2c1NCCO2` (single isomer, unassigned) [Compound 703b] stands less than 0.013 nM.

With `Cc1c(-c2cc3cc(NC(=O)N[C@H]4CCN(C)C[C@H]4F)ncc3c(N)c2F)cnc2c1NCCO2` (single isomer, unassigned) [Compound 703c, (±)-1-(8-Amino-7-fluoro-6-(8-methyl-2,3-dihydro-1H-pyrido[2,3-b][1,4]oxazin-7-yl)isoquinolin-3-yl)-3-((cis)-3-fluoro-1-methylpiperidin-4-yl)urea], the Ki (read-out: HPK1 Ki) was determined as 0.03 nM.

As for `CC(=O)N1CC[C@H](NC(=O)Nc2cc3cc(-c4cnc5c(c4C)NCCO5)c(F)c(N)c3cn2)[C@H](F)C1` (single isomer, unassigned) [Compound 710a, (±)-1-((cis)-1-Acetyl-3-fluoropiperidin-4-yl)-3-(8-amino-7-fluoro-6-(8-methyl-2,3-dihydro-1H-pyrido[2,3-b][1,4]oxazin-7-yl)isoquinolin-3-yl)urea], the Ki (read-out: HPK1 Ki) is less than 0.013 nM.

For `Cc1c(-c2cc3cc(NC(=O)N[C@H]4CCCOC4)ncc3c(N)c2F)cnc2c1NCCO2` (single isomer, unassigned) [Compound 711a], the Ki (read-out: HPK1 Ki) is less than 0.013 nM. As for `Cc1c(-c2cc3cc(NC(=O)N[C@@H]4CCCOC4)ncc3c(N)c2F)cnc2c1NCCO2` (single isomer, unassigned) [Compound 711b], the Ki (read-out: HPK1 Ki) was less than 0.013 nM. Regarding `Cc1c(-c2cc3cc(NC(=O)N[C@@H]4CCOC4)ncc3c(N)c2F)cnc2c1NCCO2` (single isomer, unassigned) [Compound 722a], the Ki (read-out: HPK1 Ki) is less than 0.013 nM. The same measure, in the same setting: the value for `Cc1c(-c2cc3cc(NC(=O)N[C@H]4CCOC4)ncc3c(N)c2F)cnc2c1NCCO2` (single isomer, unassigned) [Compound 722b] was less than 0.013 nM; that for `CO[C@@H]1COC[C@@H]1NC(=O)Nc1cc2cc(-c3cnc4c(c3C)NCCO4)c(F)c(N)c2cn1` (single isomer, unassigned) [Compound 723a] was 0.469 nM; that for `CO[C@H]1COC[C@H]1NC(=O)Nc1cc2cc(-c3cnc4c(c3C)NCCO4)c(F)c(N)c2cn1` (single isomer, unassigned) [Compound 723b] was 0.029 nM. Still for that read-out and setting: the value for `Cc1c(-c2cc3cc(NC(=O)N[C@H]4COC[C@H]4F)ncc3c(N)c2F)cnc2c1NCCO2` (single isomer, unassigned) [Compound 724a] was 0.019 nM.

Turning to `Cc1c(-c2cc3cc(NC(=O)N[C@@H]4COC[C@@H]4F)ncc3c(N)c2F)cnc2c1NCCO2` (single isomer, unassigned) [Compound 724b], the inhibition constant (Ki) (read-out: HPK1 Ki) came out at 0.019 nM. Consider `Cc1c(-c2cc3cc(NC(=O)N[C@@H]4CC[C@H](C#N)C4)ncc3c(N)c2F)cnc2c1NCCO2` (single isomer, unassigned) [Compound 726a], for which the Ki (read-out: HPK1 Ki) was less than 0.013 nM. On the same count and under the same terms, under `Cc1c(-c2cc3cc(NC(=O)N[C@H]4CC[C@@H](C#N)C4)ncc3c(N)c2F)cnc2c1NCCO2` (single isomer, unassigned) [Compound 726b] stands 0.016 nM; under `CO[C@@H]1CCC[C@@H]1NC(=O)Nc1cc2cc(-c3cnc4c(c3C)NCCO4)c(F)c(N)c2cn1` (single isomer, unassigned) [Compound 729a], 1.37 nM. On to `CO[C@H]1CCC[C@H]1NC(=O)Nc1cc2cc(-c3cnc4c(c3C)NCCO4)c(F)c(N)c2cn1` (single isomer, unassigned) [Compound 729b], for which the Ki (read-out: HPK1 Ki) was found to be 0.015 nM. On to `Cc1c(-c2cc3cc(NC(=O)N[C@H]4C[C@H]4C)ncc3c(N)c2F)cnc2c1NCCO2` (single isomer, unassigned) [Compound 736a], for which the Ki (read-out: HPK1 Ki) was less than 0.013 nM. As for `Cc1c(-c2cc3cc(NC(=O)N[C@@H]4C[C@@H]4C)ncc3c(N)c2F)cnc2c1NCCO2` (single isomer, unassigned) [Compound 736b], the Ki (read-out: HPK1 Ki) is less than 0.013 nM. For the compound `Cc1c(-c2cc3cc(NC(=O)N[C@H]4CCOC[C@H]4F)ncc3c(N)c2F)cnc2c1NCCO2` (single isomer, unassigned) [Compound 747a], where the note is “HPK1 Ki”, the Ki was less than 0.013 nM.
